{"source": "ChEMBL document CHEMBL1146637", "about": "“Structure-activity relationship in the oxazolidinone-quinolone hybrid series: influence of the central spacer on the antibacterial activity and the mode of action” (Bioorg Med Chem Lett, 2003)"}
{"system": "Escherichia coli", "test": "In vitro antibacterial activity against Escherichia coli ATCC 25922 (Ecol) was determined", "format": "functional", "units": {"MIC": "µg/mL"}}
{"smiles": "CC(=O)NC[C@H]1CN(c2ccc(OCC3CCN(c4nc5c(cc4F)c(=O)c(C(=O)O)cn5C4CC4)C3)c(F)c2)C(=O)O1", "note": "(some centres undefined)", "MIC": 1}
{"smiles": "CC(=O)NC[C@H]1CN(c2ccc(OC3CCCN(c4nc5c(cc4F)c(=O)c(C(=O)O)cn5C4CC4)C3)c(F)c2)C(=O)O1", "note": "(some centres undefined)", "MIC": "> 32"}
{"smiles": "CC(=O)NC[C@H]1CN(c2ccc(O[C@@H]3CCN(c4nc5c(cc4F)c(=O)c(C(=O)O)cn5C4CC4)C3)c(F)c2)C(=O)O1", "MIC": 8}
{"smiles": "CC(=O)NC[C@H]1CN(c2ccc(N[C@@H]3CCN(c4nc5c(cc4F)c(=O)c(C(=O)O)cn5C4CC4)C3)c(F)c2)C(=O)O1", "MIC": 0.5}
{"system": "Staphylococcus aureus", "test": "In vitro antibacterial activity against […] Staphylococcus aureus ATCC 29213 (Saul)", "format": "functional", "units": {"MIC": "µg/mL"}}
{"smiles": "CC(=O)NC[C@H]1CN(c2ccc(OCC3CCN(c4nc5c(cc4F)c(=O)c(C(=O)O)cn5C4CC4)C3)c(F)c2)C(=O)O1", "note": "(some centres undefined)", "MIC": 0.125}
{"smiles": "CC(=O)NC[C@H]1CN(c2ccc(OC3CCCN(c4nc5c(cc4F)c(=O)c(C(=O)O)cn5C4CC4)C3)c(F)c2)C(=O)O1", "note": "(some centres undefined)", "MIC": 32}
{"smiles": "CC(=O)NC[C@H]1CN(c2ccc(O[C@@H]3CCN(c4nc5c(cc4F)c(=O)c(C(=O)O)cn5C4CC4)C3)c(F)c2)C(=O)O1", "MIC": 1}
{"smiles": "CC(=O)NC[C@H]1CN(c2ccc(N[C@@H]3CCN(c4nc5c(cc4F)c(=O)c(C(=O)O)cn5C4CC4)C3)c(F)c2)C(=O)O1", "MIC": "≤ 0.06"}
{"system": "Enterococcus faecalis", "test": "In vitro antibacterial activity against Enterococcus faecalis ATCC 29212 (Efs) was determined", "format": "functional", "units": {"MIC": "µg/mL"}}
{"smiles": "CC(=O)NC[C@H]1CN(c2ccc(OCC3CCN(c4nc5c(cc4F)c(=O)c(C(=O)O)cn5C4CC4)C3)c(F)c2)C(=O)O1", "note": "(some centres undefined)", "MIC": 0.125}
{"smiles": "CC(=O)NC[C@H]1CN(c2ccc(OC3CCCN(c4nc5c(cc4F)c(=O)c(C(=O)O)cn5C4CC4)C3)c(F)c2)C(=O)O1", "note": "(some centres undefined)", "MIC": 16}
{"smiles": "CC(=O)NC[C@H]1CN(c2ccc(O[C@@H]3CCN(c4nc5c(cc4F)c(=O)c(C(=O)O)cn5C4CC4)C3)c(F)c2)C(=O)O1", "MIC": 0.5}
{"smiles": "CC(=O)NC[C@H]1CN(c2ccc(N[C@@H]3CCN(c4nc5c(cc4F)c(=O)c(C(=O)O)cn5C4CC4)C3)c(F)c2)C(=O)O1", "MIC": "≤ 0.06"}
{"system": "Staphylococcus aureus", "test": "In vitro antibacterial activity against ciprofloxacin and methicillin resistant Staphylococcus aureus (Sau2CIP) was determined", "format": "functional", "units": {"MIC": "µg/mL"}}
{"smiles": "CC(=O)NC[C@H]1CN(c2ccc(OCC3CCN(c4nc5c(cc4F)c(=O)c(C(=O)O)cn5C4CC4)C3)c(F)c2)C(=O)O1", "note": "(some centres undefined)", "MIC": 0.125}
{"smiles": "CC(=O)NC[C@H]1CN(c2ccc(OC3CCCN(c4nc5c(cc4F)c(=O)c(C(=O)O)cn5C4CC4)C3)c(F)c2)C(=O)O1", "note": "(some centres undefined)", "MIC": 16}
{"smiles": "CC(=O)NC[C@H]1CN(c2ccc(O[C@@H]3CCN(c4nc5c(cc4F)c(=O)c(C(=O)O)cn5C4CC4)C3)c(F)c2)C(=O)O1", "MIC": 0.5}
{"smiles": "CC(=O)NC[C@H]1CN(c2ccc(N[C@@H]3CCN(c4nc5c(cc4F)c(=O)c(C(=O)O)cn5C4CC4)C3)c(F)c2)C(=O)O1", "MIC": 1}
{"molecular_target": "DNA gyrase (Escherichia coli, UniProt P0AES4+P0AES6)", "test": "Inhibitory activity against DNA gyrase enzyme was determined by supercoiling assay with Escherichia coli DNA gyrase", "format": "protein-complex assay", "units": {"IC50": "nM"}}
{"smiles": "CC(=O)NC[C@H]1CN(c2ccc(OCC3CCN(c4nc5c(cc4F)c(=O)c(C(=O)O)cn5C4CC4)C3)c(F)c2)C(=O)O1", "note": "(some centres undefined)", "IC50": 2000}
{"system": "Enterococcus faecium", "test": "In vitro antibacterial activity against vancomycin and ciprofloxacin resistant Enterococcus faecium (Efm CIP) was determined", "format": "functional", "units": {"MIC": "µg/mL"}}
{"smiles": "CC(=O)NC[C@H]1CN(c2ccc(OCC3CCN(c4nc5c(cc4F)c(=O)c(C(=O)O)cn5C4CC4)C3)c(F)c2)C(=O)O1", "note": "(some centres undefined)", "MIC": 0.25}
{"smiles": "CC(=O)NC[C@H]1CN(c2ccc(OC3CCCN(c4nc5c(cc4F)c(=O)c(C(=O)O)cn5C4CC4)C3)c(F)c2)C(=O)O1", "note": "(some centres undefined)", "MIC": "> 32"}
{"smiles": "CC(=O)NC[C@H]1CN(c2ccc(O[C@@H]3CCN(c4nc5c(cc4F)c(=O)c(C(=O)O)cn5C4CC4)C3)c(F)c2)C(=O)O1", "MIC": 2}
{"smiles": "CC(=O)NC[C@H]1CN(c2ccc(N[C@@H]3CCN(c4nc5c(cc4F)c(=O)c(C(=O)O)cn5C4CC4)C3)c(F)c2)C(=O)O1", "MIC": 8}
{"system": "Escherichia coli", "test": "In vitro inhibitory activity against protein synthesis was determined by transcription/translation assay with Escherichia coli S30 Extract System.", "format": "functional", "units": {"IC50": "nM"}}
{"smiles": "CC(=O)NC[C@H]1CN(c2ccc(OCC3CCN(c4nc5c(cc4F)c(=O)c(C(=O)O)cn5C4CC4)C3)c(F)c2)C(=O)O1", "note": "(some centres undefined)", "IC50": 1500}
{"system": "Haemophilus influenzae", "test": "In vitro antibacterial activity against Haemophilus influenzae 11 (Hin) was determined", "format": "functional", "units": {"MIC": "µg/mL"}}
{"smiles": "CC(=O)NC[C@H]1CN(c2ccc(OCC3CCN(c4nc5c(cc4F)c(=O)c(C(=O)O)cn5C4CC4)C3)c(F)c2)C(=O)O1", "note": "(some centres undefined)", "MIC": 0.125}
{"smiles": "CC(=O)NC[C@H]1CN(c2ccc(OC3CCCN(c4nc5c(cc4F)c(=O)c(C(=O)O)cn5C4CC4)C3)c(F)c2)C(=O)O1", "note": "(some centres undefined)", "MIC": 2}
{"smiles": "CC(=O)NC[C@H]1CN(c2ccc(O[C@@H]3CCN(c4nc5c(cc4F)c(=O)c(C(=O)O)cn5C4CC4)C3)c(F)c2)C(=O)O1", "MIC": 0.5}
{"smiles": "CC(=O)NC[C@H]1CN(c2ccc(N[C@@H]3CCN(c4nc5c(cc4F)c(=O)c(C(=O)O)cn5C4CC4)C3)c(F)c2)C(=O)O1", "MIC": "≤ 0.06"}
{"system": "Escherichia coli", "test": "In vitro antibacterial activity against Escherichia coli AS19 (Eco2), permeable mutant was determined", "format": "functional", "units": {"MIC": "µg/mL"}}
{"smiles": "CC(=O)NC[C@H]1CN(c2ccc(OCC3CCN(c4nc5c(cc4F)c(=O)c(C(=O)O)cn5C4CC4)C3)c(F)c2)C(=O)O1", "note": "(some centres undefined)", "MIC": "≤ 0.06"}
{"smiles": "CC(=O)NC[C@H]1CN(c2ccc(OC3CCCN(c4nc5c(cc4F)c(=O)c(C(=O)O)cn5C4CC4)C3)c(F)c2)C(=O)O1", "note": "(some centres undefined)", "MIC": 8}
{"smiles": "CC(=O)NC[C@H]1CN(c2ccc(O[C@@H]3CCN(c4nc5c(cc4F)c(=O)c(C(=O)O)cn5C4CC4)C3)c(F)c2)C(=O)O1", "MIC": "≤ 0.06"}
{"smiles": "CC(=O)NC[C@H]1CN(c2ccc(N[C@@H]3CCN(c4nc5c(cc4F)c(=O)c(C(=O)O)cn5C4CC4)C3)c(F)c2)C(=O)O1", "MIC": "≤ 0.06"}
{"system": "Staphylococcus aureus", "test": "In vitro antibacterial activity against oxazolidinone Linezolid resistant Staphylococcus aureus (Sau3LZD) was determined", "format": "functional", "units": {"MIC": "µg/mL"}}
{"smiles": "CC(=O)NC[C@H]1CN(c2ccc(OCC3CCN(c4nc5c(cc4F)c(=O)c(C(=O)O)cn5C4CC4)C3)c(F)c2)C(=O)O1", "note": "(some centres undefined)", "MIC": "≤ 0.06"}
{"smiles": "CC(=O)NC[C@H]1CN(c2ccc(OC3CCCN(c4nc5c(cc4F)c(=O)c(C(=O)O)cn5C4CC4)C3)c(F)c2)C(=O)O1", "note": "(some centres undefined)", "MIC": 16}
{"smiles": "CC(=O)NC[C@H]1CN(c2ccc(O[C@@H]3CCN(c4nc5c(cc4F)c(=O)c(C(=O)O)cn5C4CC4)C3)c(F)c2)C(=O)O1", "MIC": 0.5}
{"smiles": "CC(=O)NC[C@H]1CN(c2ccc(N[C@@H]3CCN(c4nc5c(cc4F)c(=O)c(C(=O)O)cn5C4CC4)C3)c(F)c2)C(=O)O1", "MIC": "≤ 0.06"}
